Here are results for 1 compound from US10888547B2, “Amorphous and a crystalline form of genz 112638 hemitartrate as inhibitor of glucosylceramide synthase” (Genzyme Corporation, priority 2009, dated 2021).

One data set relates to Fabry mice. Put plainly: Monotherapy of Fabry mice, drug in diet. The format is in vivo, mouse. Particulars: 300 mg/kg per day in diet, 11 months. As for the experimental part:
For the monotherapy studies, Fabry mice were put on study at 1 month old (prevention model). Treatment groups received Formula (I) Hemitartrate (Genzyme Corp., Cambridge, Mass.) as a component of the pellet food diet. The drug was formulated at 0.15% (w/w) in standard 5053 mouse chow (TestDiet, Richmond, Ind.) and provided ad libitum.
Quantitation of GL-3 was by Tandem Mass Spectrometry essentially as for GL-1.
Hot plate Assay was performed as described previously (Ziegler, R J et al. Molec. Ther. 15(3), 492-500 (2007).
SRT was evaluated in a mouse model of Fabry disease, which is caused by a deficiency of α-galactosidase A activity. Therapy with Formula (I) Hemitartrate started with one month-old Fabry mice and continued until the mice reached one year of age. […] Behavioral tests (i.e., hot-plate assay) and biochemical tests (i.e., urinalysis and GL-3 level analysis in tissues/blood/urine) of the mice were performed bimonthly.

Data set [1] relates to Gaucher mice (D409V/null). The experiment in a line: Separate and sequential enzyme and substrate reduction therapy in Gaucher mice. The format is in vivo, mouse. The source says: Procedures involving animals were reviewed and approved by the Institutional Animal Care and Use Committee (IACUC) at Genzyme Corporation following the guidelines issued by the Association for Assessment and Accreditation of Laboratory Animal Care (AAALAC). […] The study had 6 groups of mice with group A being sacrificed after 2 weeks to provide baseline levels of tissue glucosylceramide. Groups B, C, and D all received recombinant human glucocerebrosidase (Genzyme Corp., Cambridge, Mass.) (10 mg/kg) intravenously via a tail-vein (100 μL) every 2 days for a total of 8 injections. Group B was sacrificed at the end of this regimen (at the same time as group A) to provide enzyme-reduced levels of tissue glucosylceramide. Groups D and E were both fed Formula (I) Hemitartrate (Genzyme Corp., Cambridge, Mass.) as a component of the pellet food diet. The drug was formulated at 0.075% (w/w) in standard 5053 mouse chow (TestDiet, Richmond, Ind.) and provided ad libitum. […] Group F received no treatment and was sacrificed along with groups C, D and E 12 weeks after the start of the study. Food consumption and mouse weights were monitored three times per week to determine drug intake and the potential impact of the drug on overall health. Animals were killed by carbon dioxide inhalation and their tissues harvested immediately. Half of each tissue was snap frozen on dry ice and stored at −80° C. until ready for further processing. The other half was processed for histological analysis.
Glucosylceramide levels were quantified by mass spectrometry as described previously (see K. McEachern, et al., J. Gene. Med. 8 (2006) 719-729; T. Doering, J. Biol. Chem. 274 (1999) 11038-11045, the entire teachings of both are incorporated herein by reference). A known mass of tissue was homogenized in 2:1 (v/v) chloroform:methanol and incubated at 37° C. for 15 min. Samples were centrifuged and the supernatants were extracted with 0.2 volumes of water overnight at 4° C. The samples were centrifuged, the aqueous phase was discarded, and the organic phase was dried down to a film under nitrogen. For electrospray ionization mass spectrometry (ESI/MS) analysis, tissue samples were reconstituted to the equivalent of […] original tissue weight in 1 ml chloroform:methanol (2:1, v/v) and vortexed for 5 min. Aliquots (40 μL) of each sample were delivered to Waters total recovery vials and 50 μL of a 10 μg/mL d3-C16-GL-1 internal standard (Matreya, Inc., Pleasant Gap, Pa.) was added. Samples were dried under nitrogen and reconstituted with 200 μL of 1:4 (v/v) DMSO:methanol. ESI/MS analysis of glucosylceramides of different carbon chain lengths was performed on a Waters alliance HPLC (Separation Module 2695) coupled to a Micromass Quattro Micro system equipped with an electrospray ion source. Lipid extract samples (20 μL) were injected onto a C8 column ([…] i.d; Phenomenex, Torrance, Calif.) at 45° C. and eluted with a gradient of 50 to 100% acetonitrile (2 mM ammonium acetate, 0.1% formic acid) at 0.5 mL/min. The first 0.5 min. was held at 50% organic and then quickly switched to 100% for the final 3.5 min. The source temperature was held constant at 150° C. and nitrogen was used as the desolvation gas at a flow rate of 670 L/h. The capillary voltage was maintained at 3.80 KV with a cone voltage of 23 V, while the dwell time for each ion species was 100 ms. Spectra were acquired by the MRM mode to monitor eight dominant isoforms (C16:0, C18:0, C20:0, C22:1, C22:0, C22:1-OH, C24:1, and C24:0). Quantitation of glucosylceramide was based on the sum of these eight isoforms relative to the internal standard, with a calibration curve ranging from 0.1 to 10 μg/mL.
For histological analysis, tissues were fixed in zinc formalin (Electron Microscopy Sciences, Hatfield, Pa.) at room temperature for 24 h, then stored in PBS at 4° C. until ready for further processing. […]

Data set [2] in a line: Drug interaction study with ketoconazole (CYP3A4 and p-glycoprotein inhibitor) in healthy subjects. Particulars: 100 mg twice daily with ketoconazole 400 mg once daily. It is filed as in vivo, human.
Setting [3] is: group D: 2 weeks enzyme, then 150 mg/kg/day in food for 10 weeks.
Where [4] appears, read: group E: 150 mg/kg/day in food alone for 12 weeks.

Take `CCCCCCCC(=O)N[C@H](CN1CCCC1)[C@H](O)c1ccc2c(c1)OCCO2` [Formula (I) Hemitartrate]: in the data set on Fabry mice, the “presentation of insensitivity to an aversive heat stimulus (hot-plate assay)” value is reported as “later presentation”; the “urinalysis factors (urine volume, creatinine and sodium levels)” value is “prevention of deterioration”. The “liver histopathology, CD68-positive Gaucher cells” value in data set [1] (2 weeks enzyme, then substrate reduction therapy for 10 weeks) is given as “increase in Gaucher cells was negated”. In addition, the “weight gain versus regular chow” value in data set [1] (chow containing 150 mg/kg/day) is recorded as “no discernible differences in weight gain”. Also, in data set [1] (drug alone for 12 weeks), the “liver histopathology, CD68-positive Gaucher cells” value was “reduced accumulation of the substrate”. For the same compound, the “lung GL1 levels versus untreated controls (F)” value in data set [1] (group D: 2 weeks enzyme, then 150 mg/kg/day in chow for 10 weeks) is reported as “significantly lower”. Besides, in data set [1] (setting [3]), the “liver GL1 levels versus untreated controls (F)” value is “significantly lower” and the “splenic GL1 levels versus untreated control (F)” value is reported as “significantly lower”. Besides, in data set [1] (setting [4]), the “liver GL-1 levels versus untreated, age-matched controls (F)” value is listed as “the difference was not significant”; the “pulmonary GL1 levels versus untreated controls (F)” value was “effective in lowering pulmonary GL1 levels”; the “splenic GL1 levels versus untreated controls (F)” value is “the difference was not significant”. Besides, in data set [2], the “increase in exposure of the free base in plasma at steady state with ketoconazole” value was 4 fold.
